{"source": "paper PMC5271583", "about": "(Bioorganic & medicinal chemistry letters, 2016)", "type_in_all_cases": "cell-based, rodent", "key": {"CRAC channel": {"molecular_target": "CRAC channel (Rattus norvegicus, UniProt Q5M848)", "sequence (Q5M848 whole entry)": "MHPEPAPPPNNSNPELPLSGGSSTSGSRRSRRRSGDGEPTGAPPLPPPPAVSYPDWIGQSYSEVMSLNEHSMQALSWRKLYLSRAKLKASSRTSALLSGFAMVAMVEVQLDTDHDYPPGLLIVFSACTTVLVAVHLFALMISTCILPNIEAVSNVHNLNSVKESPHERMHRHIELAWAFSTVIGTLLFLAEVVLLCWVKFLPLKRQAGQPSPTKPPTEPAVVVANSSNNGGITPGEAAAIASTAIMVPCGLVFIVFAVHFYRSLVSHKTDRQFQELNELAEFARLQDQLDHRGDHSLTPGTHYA", "assay": "Inhibition of Ca2+ influx in thapsigargin-activated RBL-2H3 mast cells", "conditions": "for inhibition at 100 µM: RBL-2H3, read-out: Inhibition of Ca2+ influx at 100 µM (no IC50)"}, "TNFα": {"system": "TNFα", "assay": "TNFα protein secretion by thapsigargin-activated RBL cells, ELISA", "conditions": "4 h, read-out: IC50 (µM) TNFα"}, "NFAT-c1": {"system": "NFAT-c1", "conditions": "10 µM and higher concentrations"}, "RBL-2H3 cells": {"system": "RBL-2H3 cells", "assay": "β-hexosaminidase release", "conditions": "highest concentration tested"}}, "note": "Like-named read-outs stand apart in the source and are kept apart here.", "data": [{"molecule": "O=C(Nc1ccccc1F)c1nn(Cc2ccc(Cl)cc2Cl)c2ccccc12", "note": "[Compound 12c]", "values": [{"measurement": "IC50", "setting": "CRAC channel", "result": "> 30", "unit": "µM"}]}, {"molecule": "Cc1nnsc1C(=O)Nc1nn(Cc2ccc(Cl)cc2Cl)c2ccccc12", "note": "[Compound 9e]", "values": [{"measurement": "IC50", "setting": "CRAC channel", "result": "> 30", "unit": "µM"}, {"measurement": "inhibition at 30 µM", "setting": "CRAC channel; RBL-2H3, read-out: Inhibition of Ca2+ influx at 30 µM", "result": "~50", "unit": "%"}]}, {"molecule": "O=C(Nc1ccc(F)cc1F)c1nn(Cc2ccc(Cl)cc2Cl)c2ccccc12", "note": "[Compound 12e]", "values": [{"measurement": "IC50", "setting": "TNFα", "result": 0.64, "unit": "µM"}]}, {"molecule": "O=C(Nc1nn(Cc2ccc(Cl)cc2Cl)c2ccccc12)c1ccc(F)cc1F", "note": "[Compound 9f]", "values": [{"measurement": "inhibition at 100 µM", "setting": "CRAC channel", "result": "< 50", "unit": "%"}]}, {"molecule": "N-[1-[(2,4-dichlorophenyl)methyl]indazol-3-yl]-3-fluoro-pyridine-4-carboxamide [Compound 12d]", "values": [{"measurement": "Level of nuclear NFAT (in words)", "setting": "NFAT-c1", "result": "restore the levels of nuclear NFAT to that of resting MCs"}, {"measurement": "IC50", "setting": "CRAC channel; read-out: IC50 (µM) Ca2+ influx, Table 3, SD <20%", "result": 0.67, "unit": "µM"}, {"measurement": "IC50", "setting": "CRAC channel; read-out: IC50 (µM), inhibition of Ca2+ influx, indazole derivatives, Table 1, RBL-2H3 cells activated with Tg 1 µM, SD <35%", "result": 0.67, "unit": "µM"}, {"measurement": "Inhibition of β-hex release (in words)", "setting": "RBL-2H3 cells", "result": "nearly complete inhibition of β-hex release"}]}, {"molecule": "O=C(Nc1cnns1)c1nn(Cc2ccc(Cl)cc2Cl)c2ccccc12", "note": "[Compound 12h]", "values": [{"measurement": "inhibition at 100 µM", "setting": "CRAC channel", "result": "< 50", "unit": "%"}]}, {"molecule": "O=C(Nc1nn(Cc2ccc(Cl)cc2Cl)c2ccccc12)c1c(F)cccc1F", "note": "[Compound 9a]", "values": [{"measurement": "inhibition at 100 µM", "setting": "CRAC channel", "result": "< 50", "unit": "%"}]}]}
